As a reminder, the IC50 is the concentration needed to halve the response being measured. A low value points to higher potency.

For this assay, the system named is microsomal lipids. The assay can be described thus: Inhibition of lipid peroxidation (microsomal lipids, tert-butylhydroperoxide initiated, chemiluminescence detection). In kind it is biochemical. As to conditions: peroxidation of microsomal lipids initiated by tert-butylhydroperoxide. From the text: In this model, lignan compounds were compared to the well known, potent antioxidant Trolox, which is a water-soluble derivative of vitamin E.
For `COc1cc(C[C@H]2C(=O)OC[C@@H]2[C@H](O)c2ccc(O)c(OC)c2)ccc1O` [Hydroxymatairesinol (HMR), Hydroxymatairesinol], the IC50 was 60 nM. In turn, `COc1cc(C[C@H]2CO[C@H](c3ccc(O)c(OC)c3)[C@H]2CO)ccc1O` [Lariciresinol] yielded an IC50 of 70 nM.

Turning to `CCCC(=O)Oc1ccc(C[C@H]2COC(=O)[C@@H]2Cc2ccc(OC(=O)CCC)c(OC)c2)cc1OC` [Matairesinoibutyrate], it took 350 nM to reach half-maximal inhibition (IC50). On to `COc1cc(C[C@H]2COC(=O)[C@@H]2Cc2ccc(O)c(OC)c2)ccc1O` [Matairesinol], for which the midpoint of inhibition, the IC50, lay at 54 nM.

In turn, `COc1cc(CC2COC(=O)C2(O)Cc2ccc(O)c(OC)c2)ccc1O` (centres unmarked) [Nortrachelogenin] registered an IC50 of 150 nM. For `COc1cc(CC2C(=O)OCC2C(=O)c2ccc(O)c(OC)c2)ccc1O` (centres unmarked) [Oxomatairesinol], 110 nM corresponded to half-maximal inhibition (IC50). `COc1cc(C[C@@H](CO)[C@H](CO)Cc2ccc(O)c(OC)c2)ccc1O` [Secoisolariciresinol] registered an IC50 of 90 nM.

`Cc1c(C)c2c(c(C)c1O)CCC(C)(C(=O)O)O2` (centres unmarked) [Trolox, reference compound] gave an IC50 of 220 nM. With HMR-benzoate, the IC50 came out at 120 nM. Take HMR-butyrate: the IC50 turned out to be 100 nM. Next, α-Conidendrin: 67 nM.

The record behind these values is patent US7582677B2, “Lignan formulations” (Hormos Medical Corp., priority 2002, dated 2009).
